Measured values taken from US7632972B2, “Compounds and methods for treatment of cancer and modulation of programmed cell death for melanoma and other cancer cells” (The Board of Trustees of the University of Illionis, priority 2003, dated 2009).

Tests used:
Assay type in all cases: cell-based, human
RPMI-8226 = test: NCI 60 cell line screen (SRB), Leukemia
Source text: (§1) The operation of this screen utilizes 60 different human tumor cell lines, representing leukemia, melanoma and cancers of the lung, colon, brain, ovary, breast, prostate, and kidney. The aim is to prioritize for further evaluation, synthetic compounds or natural product samples showing selective growth inhibition or cell killing of particular tumor cell lines. This screen is unique in that the complexity of a 60 cell line dose response produced by a given compound results in a biological response pattern which can be utilized in pattern recognition algorithms. Using these algorithms, it is possible to assign a putative mechanism of action to a test compound, or to determine that the response pattern is unique and not similar to that of any of the standard prototype compounds included in the NCl database (see DTP Overview tab). In addition, following characterization of various cellular molecular targets in the 60 cell lines, it may be possible to select compounds most likely to interact with a specific molecular target.
(§2) The human tumor cell lines of the cancer screening panel are grown in RPMI 1640 medium containing 5% fetal bovine serum and 2 mM L-glutamine. For a typical screening experiment, cells are inoculated into 96 well microtiter plates in 100 μL at plating densities ranging from 5,000 to 40,000 cells/well depending on the doubling time of individual cell lines. After cell inoculation, the microtiter plates are incubated at 37° C., 5% CO2, 95% air and 100% relative humidity for 24 h prior to addition of experimental drugs.
(§3) After 24 h, two plates of each cell line are fixed in situ with TCA, to represent a measurement of the cell population for each cell line at the time of drug addition (Tz). Experimental drugs are solubilized in dimethyl sulfoxide at 400-fold the desired final maximum test concentration and stored frozen prior to use. At the time of drug addition, an aliquot of frozen concentrate is thawed and diluted to twice the desired final maximum test concentration with complete medium containing 50 μg/ml gentamicin. Additional four, 10-fold or ½ log serial dilutions are made to provide a total of five drug concentrations plus control. Aliquots of 100 μl of these different drug dilutions are added to the appropriate microtiter wells already containing 100 μl of medium, resulting in the required final drug concentrations.
(§4) Following drug addition, the plates are incubated for an additional 48 h at 37° C., 5% CO2, 95% air, and 100% relative humidity. For adherent cells, the assay is terminated by the addition of cold TCA. Cells are fixed in situ by the gentle addition of 50 μl of cold 50% (w/v) TCA (final concentration, 10% TCA) and incubated for 60 minutes at 4° C. The supernatant is discarded, and the plates are washed five times with tap water and air dried. Sulforhodamine B (SRB) solution (100 μl) at 0.4% (w/v) in 1% acetic acid is added to each well, and plates are incubated for 10 minutes at room temperature. After staining, unbound dye is removed by washing five times with 1% acetic acid and the plates are air dried. Bound stain is subsequently solubilized with 10 mM trizma base, and the absorbance is read on an automated plate reader at a wavelength of 515 nm. For suspension cells, the methodology is the same except that the assay is terminated by fixing settled cells at the bottom of the wells by gently adding 50 μl of 80% TCA (final concentration, 16% TCA). Using the seven absorbance measurements [time zero, (Tz), control growth, (C), and test growth in the presence of drug at the five concentration levels (Ti)], the percentage growth is calculated at each of the drug concentrations levels. Percentage growth inhibition is calculated as: [(Ti−Tz)/(C−Tz)]×100 for concentrations for which Ti>/=Tz [(Ti−Tz)/Tz]×100 for concentrations for which Ti<Tz.
(§5) Three dose response parameters are calculated for each experimental agent. […]

MOLT-4 = test: NCI 60 cell line screen (SRB), Leukemia
Source text: as §1, §2, §3, §4, §5

SNB-19 = test: NCI 60 cell line screen (SRB), CNS Cancer
Source text: as §1, §2, §3, §4, §5

SF-268 = test: NCI 60 cell line screen (SRB), CNS Cancer
Source text: as §1, §2, §3, §4, §5

U251 = test: NCI 60 cell line screen (SRB), CNS Cancer
Source text: as §1, §2, §3, §4, §5

SK-MEL-5 = test: NCI 60 cell line screen (SRB), Melanoma
Source text: as §1, §2, §3, §4, §5

UACC-62 = test: NCI 60 cell line screen (SRB), Melanoma
Source text: as §1, §2, §3, §4, §5

SK-MEL-28 = test: NCI 60 cell line screen (SRB), Melanoma
Source text: as §1, §2, §3, §4, §5

SK-MEL-2 = test: NCI 60 cell line screen (SRB), Melanoma
Source text: as §1, §2, §3, §4, §5

Structure (SMILES): COc1cccc(CCNC(=O)CC(c2ccccc2)(c2ccccc2)c2ccccc2)c1 [Compound Z3]
- GI50 (RPMI-8226; RPMI-8226): 4.98 µM
- TGI (RPMI-8226; RPMI-8226): >1.00E−04
- Percent Growth (RPMI-8226; RPMI-8226, Log10 Concentration −4.0): 24%
- Percent Growth (RPMI-8226; RPMI-8226, Log10 Concentration −5.0): 29%
- Percent Growth (RPMI-8226; RPMI-8226, Log10 Concentration −6.0): 98%
- Percent Growth (RPMI-8226; RPMI-8226, Log10 Concentration −7.0): 100%
- Percent Growth (RPMI-8226; RPMI-8226, Log10 Concentration −8.0): 92%
- CC50 (RPMI-8226; RPMI-8226, read-out: LC50 (the source's name)): > 100 µM
- GI50 (MOLT-4; MOLT-4): 6.01 µM
- TGI (MOLT-4; MOLT-4): >1.00E−04
- Percent Growth (MOLT-4; MOLT-4, Log10 Concentration −4.0): 33%
- Percent Growth (MOLT-4; MOLT-4, Log10 Concentration −5.0): 34%
- Percent Growth (MOLT-4; MOLT-4, Log10 Concentration −6.0): 107%
- Percent Growth (MOLT-4; MOLT-4, Log10 Concentration −7.0): 123%
- Percent Growth (MOLT-4; MOLT-4, Log10 Concentration −8.0): 116%
- CC50 (MOLT-4; MOLT-4, read-out: LC50 (the source's name)): > 100 µM
- GI50 (SNB-19; SNB-19): 90.1 µM
- TGI (SNB-19; SNB-19): >1.00E−04
- Percent Growth (SNB-19; SNB-19, Log10 Concentration −4.0): 48%
- Percent Growth (SNB-19; SNB-19, Log10 Concentration −5.0): 92%
- Percent Growth (SNB-19; SNB-19, Log10 Concentration −6.0): 92%
- Percent Growth (SNB-19; SNB-19, Log10 Concentration −7.0): 107%
- Percent Growth (SNB-19; SNB-19, Log10 Concentration −8.0): 97%
- CC50 (SNB-19; SNB-19, read-out: LC50 (the source's name)): > 100 µM
- GI50 (SF-268; SF-268): 15 µM
- TGI (SF-268; SF-268): >1.00E−04
- Percent Growth (SF-268; SF-268, Log10 Concentration −4.0): 38%
- Percent Growth (SF-268; SF-268, Log10 Concentration −5.0): 53%
- Percent Growth (SF-268; SF-268, Log10 Concentration −6.0): 87%
- Percent Growth (SF-268; SF-268, Log10 Concentration −7.0): 97%
- Percent Growth (SF-268; SF-268, Log10 Concentration −8.0): 90%
- CC50 (SF-268; SF-268, read-out: LC50 (the source's name)): > 100 µM
- GI50 (U251; U251): 4.85 µM
- TGI (U251; U251): 5.56E−05
- Percent Growth (U251; U251, Log10 Concentration −4.0): −10%
- Percent Growth (U251; U251, Log10 Concentration −5.0): 29%
- Percent Growth (U251; U251, Log10 Concentration −6.0): 96%
- Percent Growth (U251; U251, Log10 Concentration −7.0): 107%
- Percent Growth (U251; U251, Log10 Concentration −8.0): 99%
- CC50 (U251; U251, read-out: LC50 (the source's name)): > 100 µM
- GI50 (SK-MEL-5; SK-MEL-5): 4.84 µM
- TGI (SK-MEL-5; SK-MEL-5): >1.00E−04
- Percent Growth (SK-MEL-5; SK-MEL-5, Log10 Concentration −4.0): 15%
- Percent Growth (SK-MEL-5; SK-MEL-5, Log10 Concentration −5.0): 21%
- Percent Growth (SK-MEL-5; SK-MEL-5, Log10 Concentration −6.0): 113%
- Percent Growth (SK-MEL-5; SK-MEL-5, Log10 Concentration −7.0): 112%
- Percent Growth (SK-MEL-5; SK-MEL-5, Log10 Concentration −8.0): 80%
- CC50 (SK-MEL-5; SK-MEL-5, read-out: LC50 (the source's name)): > 100 µM
- GI50 (UACC-62; UACC-62): 0.613 µM
- TGI (UACC-62; UACC-62): >1.00E−04
- Percent Growth (UACC-62; UACC-62, Log10 Concentration −4.0): 22%
- Percent Growth (UACC-62; UACC-62, Log10 Concentration −5.0): 14%
- Percent Growth (UACC-62; UACC-62, Log10 Concentration −6.0): 41%
- Percent Growth (UACC-62; UACC-62, Log10 Concentration −7.0): 83%
- Percent Growth (UACC-62; UACC-62, Log10 Concentration −8.0): 94%
- CC50 (UACC-62; UACC-62, read-out: LC50 (the source's name)): > 100 µM
- GI50 (SK-MEL-28; SK-MEL-28): > 100 µM
- TGI (SK-MEL-28; SK-MEL-28): >1.00E−04
- Percent Growth (SK-MEL-28; SK-MEL-28, Log10 Concentration −4.0): 94%
- Percent Growth (SK-MEL-28; SK-MEL-28, Log10 Concentration −5.0): 103%
- Percent Growth (SK-MEL-28; SK-MEL-28, Log10 Concentration −6.0): 96%
- Percent Growth (SK-MEL-28; SK-MEL-28, Log10 Concentration −7.0): 105%
- Percent Growth (SK-MEL-28; SK-MEL-28, Log10 Concentration −8.0): 84%
- CC50 (SK-MEL-28; SK-MEL-28, read-out: LC50 (the source's name)): > 100 µM
- GI50 (SK-MEL-2; SK-MEL-2): 4.41 µM
- TGI (SK-MEL-2; SK-MEL-2): >1.00E−04
- Percent Growth (SK-MEL-2; SK-MEL-2, Log10 Concentration −4.0): 18%
- Percent Growth (SK-MEL-2; SK-MEL-2, Log10 Concentration −5.0): 24%
- Percent Growth (SK-MEL-2; SK-MEL-2, Log10 Concentration −6.0): 97%
- Percent Growth (SK-MEL-2; SK-MEL-2, Log10 Concentration −7.0): 85%
- Percent Growth (SK-MEL-2; SK-MEL-2, Log10 Concentration −8.0): 80%
- CC50 (SK-MEL-2; SK-MEL-2, read-out: LC50 (the source's name)): > 100 µM
